From patent US20150209315A1 (Cumberland Pharmaceuticals, priority 2009, published 2015)
“And” between values parts separate entries of the source, which are not always exact repeats. Identical values can stand only once.

How the values were obtained:
[1] = system: patients undergoing orthopedic surgical procedures; experiment: Example 3: pain at rest measured with VAS; settings: 800 mg, immediately post-surgery
[2] = system: post-operative adult patients; experiment: Example 2: morphine use in the 24 hours following abdominal hysterectomy surgery; assay type: in vivo, human; settings: 800 mg; for Morphine Requirement, Mean (SD) / Morphine Requirement, Median: 24 hours following surgery; for Transformed Morphine Requirement, LSMeans (SE) / Transformed Morphine Requirement, Max / Transformed Morphine Requirement, Mean (SD) / Transformed Morphine Requirement, Median / Transformed Morphine Requirement, Min: Box Cox transformation
Method: To be eligible for this study, the patients met the following inclusion criteria: 1) scheduled for elective abdominal hysterectomy surgery with anticipated need for post-operative I.V. morphine analgesia with anticipated use of greater than 24 hours; 2) adequate IV access; and 3) anticipated hospital stay greater than 24 hours. The study exclusion criteria required patients only between the ages of 18 and 70 years old. […] Efficacy was measured by comparing the reduction in morphine use over the 24 hours immediately post surgery. Efficacy was measured by reduction in the requirement for the narcotic analgesic, morphine, in the 24 hours post surgery.
(§1) The Clinical Trial Material (“CTM”) was mixed in 250 mL normal saline. Saline was chosen as the control group (placebo) for this study, to ensure blinding and allow for analysis of treatment effect.
By protocol, patients were to be dosed every six hours for five doses, then as necessary (PRN) for pain every six hours for up to five days post surgery. However, after 24 hours through day 5, CTM had to be discontinued if there was a requirement for narcotic pain medication other than morphine or non-narcotic medications including the use of another NSAID. Further, after 24 hours through day 5, CTM may have been discontinued if there was resolution of pain, no IV access or discharge from the hospital.
The study participants were randomized based on criteria for an efficacy evaluable population (EEP) versus an intent to treat population (ITT). […] The intent-to-treat population (ITT) consists of AT patients who received at least one post-surgical dose of CTM or at least one dose of morphine for break-through pain. The efficacy evaluable population (EEP) consists of all ITT patients who received each of the first five doses of CTM within 60 minutes of the scheduled time and who have the 6-hour and 28-hour VAS with movement assessments.
Eligible patients were randomized to one of the two treatment groups. All patients were able (but were not required) to receive morphine until approximately 45 minutes before the end of the surgical procedure. After that time, only fentanyl was allowed until the end of the operation. […] Upon discharge from the operating room, patients had access to morphine (approximately 1-2 mg q 5 minutes) upon patient request or delivered by patient-controlled analgesia (PCA). […] Upon discharge from the operating room, patients had access to 1 mg morphine every 5 minutes upon request or by patient-controlled analgesia (PCA). […] Patients given non-morphine analgesics were classified as treatment failures. Treatment failures were not replaced.
Patients were evaluated and compared for morphine requirements between the active doses and placebo using analysis of variance and covariance procedures at an overall alpha level of 0.05. Secondary efficacy parameters were also evaluated and compared among the treatment groups using appropriate statistical methods described in the statistical analysis section of the protocol. Safety information was compared between the treatment groups using Chi-Square or Cochran-Mantel-Haenszel test. Demographic, background and baseline information among the treatment groups was also described.
The primary endpoint for the study was reduction in the requirement for morphine use in the 24 hours following surgery as measured by total morphine usage compared to placebo. Analysis of variance and covariance procedures were used to compare the reduction in the requirement for morphine use in the 24 hours following surgery among the treatment groups. Dunnet's test was used as a multiple comparison test to compare active dose groups with the placebo group at an overall alpha level of 0.05. In the primary model, center was introduced as a covariate.

[3] = system: post-operative adult patients; experiment: Example 2: patient self-assessment of pain, VAS with movement; assay type: in vivo, human; settings: 800 mg
[4] = system: patients undergoing orthopedic surgical procedures; experiment: Example 3: pain with movement measured with VAS; assay type: in vivo, human; settings: 800 mg, immediately post-surgery
Method: Efficacy was measured by comparing the reduction in morphine use over the 24 hours immediately post surgery. Efficacy was measured by reduction in the requirement for the narcotic analgesic, morphine, in the 24 hours post surgery.
as §1
The study participants were randomized based on criteria for an efficacy evaluable population (EEP) versus an intent to treat population (ITT).
Eligible patients were randomized to one of the two treatment groups.
Patients were evaluated and compared for morphine requirements between the active doses and placebo using analysis of variance and covariance procedures at an overall alpha level of 0.05. Secondary efficacy parameters were also evaluated and compared among the treatment groups using appropriate statistical methods described in the statistical analysis section of the protocol. For the adverse events, instead of using an unadjusted Chi-square test and a Cochran-Mantel-Haenszel test adjusted for center to compare treatment groups with respect to the numbers of patients reporting AEs, a Fisher's exact test was used to compare treatment groups for any AE that was reported by five or more patients.

Question: Which “decrease in the mean VAS at rest” value ([1]; AT) does the source give for `CC(C)Cc1ccc(C(C)C(=O)O)cc1` (stereo not shown) [Ibuprofen, 2-(4-isobutylphenyl) propionic acid] here?
Answer: 15.8%

Question: What about the “decrease in the mean VAS at rest” value ([1]; efficacy evaluable) of the same compound?
Answer: 14.7%

Question: And the “decrease in the mean VAS at rest” value ([1]; intent-to-treat)?
Answer: 16.5%

Question: And the “Morphine Requirement, Max” value ([2]; Efficacy Evaluable)?
Answer: 143.3 mg

Question: What about the “Morphine Requirement, Min” value ([2]; Efficacy Evaluable) of the same compound?
Answer: 4.0 mg

Question: And the “Morphine Requirement, Mean (SD)” value ([2]; Efficacy Evaluable)?
Answer: 45.5 mg and 45.5 (24.6) mg

Question: And the “Morphine Requirement, Median” value ([2]; Efficacy Evaluable)?
Answer: 42.0 mg

Question: And the “Transformed Morphine Requirement, LSMeans (SE)” value ([2]; Efficacy Evaluable)?
Answer: 10.8 (0.3) mg

Question: And the “Transformed Morphine Requirement, Max” value ([2]; Efficacy Evaluable)?
Answer: 21.2 mg

Question: And the “Transformed Morphine Requirement, Mean (SD)” value ([2]; Efficacy Evaluable)?
Answer: 10.7 (3.5) mg

Question: What about the “Transformed Morphine Requirement, Median” value ([2]; Efficacy Evaluable) of the same compound?
Answer: 10.7 mg

Question: What about the “Transformed Morphine Requirement, Min” value ([2]; Efficacy Evaluable) of the same compound?
Answer: 2.0 mg

Question: What about the “Morphine Requirement, Max” value ([2]; Intent-to-Treat) of the same compound?
Answer: 143.3 mg

Question: What about the “Morphine Requirement, Min” value ([2]; Intent-to-Treat) of the same compound?
Answer: 4.0 mg

Question: What about the “Morphine Requirement, Mean (SD)” value ([2]; Intent-to-Treat) of the same compound?
Answer: 47.3 mg and 47.3 (25.6) mg

Question: What about the “Morphine Requirement, Median” value ([2]; Intent-to-Treat) of the same compound?
Answer: 43.5 mg

Question: And the “Transformed Morphine Requirement, LSMeans (SE)” value ([2]; Intent-to-Treat)?
Answer: 12.1 (0.4) mg

Question: And the “Transformed Morphine Requirement, Max” value ([2]; Intent-to-Treat)?
Answer: 23.5 mg

Question: And the “Transformed Morphine Requirement, Mean (SD)” value ([2]; Intent-to-Treat)?
Answer: 11.8 (4.0) mg

Question: And the “Transformed Morphine Requirement, Median” value ([2]; Intent-to-Treat)?
Answer: 11.8 mg

Question: What about the “Transformed Morphine Requirement, Min” value ([2]; Intent-to-Treat) of the same compound?
Answer: 2.0 mg

Question: What about the “VAS Score measured with Movement (median)” value (shortened to “VAS Score … (median)”) ([3]; EEP, 1-Hour) of the same compound?
Answer: 9.0

Question: And the “VAS Score measured with Movement, % Reduction vs Placebo” value (from here on “VAS Score … % Reduction vs Placebo”) ([3]; EEP, 1-Hour)?
Answer: −12.5%

Question: And the “VAS Score … (median)” value ([3]; EEP, 3-Hour)?
Answer: 7.0

Question: And the “VAS Score … % Reduction vs Placebo” value ([3]; EEP, 3-Hour)?
Answer: 0.0%

Question: What about the “VAS Score … (median)” value ([3]; EEP, 6-Hour) of the same compound?
Answer: 6.0

Question: What about the “VAS Score … % Reduction vs Placebo” value ([3]; EEP, 6-Hour) of the same compound?
Answer: 0.0%

Question: What about the “VAS Score … (median)” value ([3]; EEP, 9-Hour) of the same compound?
Answer: 5.0

Question: What about the “VAS Score … % Reduction vs Placebo” value ([3]; EEP, 9-Hour) of the same compound?
Answer: 0.0%

Question: And the “VAS Score … (median)” value ([3]; EEP, 12-Hour)?
Answer: 4.0

Question: And the “VAS Score … % Reduction vs Placebo” value ([3]; EEP, 12-Hour)?
Answer: 20.0%

Question: And the “VAS Score … (median)” value ([3]; EEP, 15-Hour)?
Answer: 3.0

Question: What about the “VAS Score … (median)” value ([3]; EEP, 18-Hour) of the same compound?
Answer: 3.0

Question: And the “VAS Score … % Reduction vs Placebo” value ([3]; EEP, 18-Hour)?
Answer: 25.0%

Question: What about the “VAS Score … (median)” value ([3]; EEP, 21-Hour) of the same compound?
Answer: 3.0

Question: What about the “VAS Score … % Reduction vs Placebo” value ([3]; EEP, 21-Hour) of the same compound?
Answer: 25.0%

Question: And the “VAS Score … (median)” value ([3]; EEP, 24-Hour)?
Answer: 3.0

Question: And the “VAS Score … % Reduction vs Placebo” value ([3]; EEP, 24-Hour)?
Answer: 40.0%

Question: And the “VAS Score … (median)” value ([3]; ITT, 1-Hour)?
Answer: 9.0

Question: What about the “VAS Score … % Reduction vs Placebo” value ([3]; ITT, 1-Hour) of the same compound?
Answer: −12.5%

Question: And the “VAS Score … (median)” value ([3]; ITT, 3-Hour)?
Answer: 7.0

Question: What about the “VAS Score … % Reduction vs Placebo” value ([3]; ITT, 3-Hour) of the same compound?
Answer: 0.0%

Question: And the “VAS Score … (median)” value ([3]; ITT, 6-Hour)?
Answer: 6.0

Question: What about the “VAS Score … % Reduction vs Placebo” value ([3]; ITT, 6-Hour) of the same compound?
Answer: 0.0%

Question: And the “VAS Score … (median)” value ([3]; ITT, 9-Hour)?
Answer: 5.0

Question: What about the “VAS Score … % Reduction vs Placebo” value ([3]; ITT, 9-Hour) of the same compound?
Answer: 3.8%

Question: And the “VAS Score … (median)” value ([3]; ITT, 12-Hour)?
Answer: 4.3

Question: What about the “VAS Score … % Reduction vs Placebo” value ([3]; ITT, 12-Hour) of the same compound?
Answer: 10.4%

Question: And the “VAS Score … (median)” value ([3]; ITT, 15-Hour)?
Answer: 3.4

Question: What about the “VAS Score … % Reduction vs Placebo” value ([3]; ITT, 15-Hour) of the same compound?
Answer: 22.7%

Question: And the “VAS Score … (median)” value ([3]; ITT, 18-Hour)?
Answer: 3.0

Question: What about the “VAS Score … (median)” value ([3]; ITT, 21-Hour) of the same compound?
Answer: 3.0

Question: What about the “VAS Score … % Reduction vs Placebo” value ([3]; ITT, 21-Hour) of the same compound?
Answer: 34.8%

Question: And the “VAS Score … (median)” value ([3]; ITT, 24-Hour)?
Answer: 3.6

Question: What about the “VAS Score … % Reduction vs Placebo” value ([3]; ITT, 24-Hour) of the same compound?
Answer: 20.0%

Question: What about the “decrease in the mean VAS with movement” value ([4]; AT) of the same compound?
Answer: 13.9%

Question: What about the “decrease in the mean VAS with movement” value ([4]; efficacy evaluable) of the same compound?
Answer: 13.6%

Question: And the “decrease in the mean VAS with movement” value ([4]; intent-to-treat)?
Answer: 14.3%
